Experimental data as given in patent publication US7115635B2, “Benzylpiperidine compound” (Mitsubishi Pharma Corporation, priority 2001, dated 2006).
Counter-ions that a name gives are not always drawn.

What was measured:
human eosinophil = experiment: Binding inhibitory activity between chemokine ([125I]-eotaxin) and human eosinophil; settings: 50 pmol/L [125I]-eotaxin, human eosinophil 2x10^5, 25 C, 1 hr; read-out: IC50 (concentration necessary for decreasing the binding between [125I]-eotaxin and human eosinophil by 50%)
Description: Human eosinophil was separated from the anticoagulation treated peripheral blood of a healthy subject by CD16 negative selection method (e.g., J. Immunol. Methods, vol., 145, pp. 105–110, 1991). The separated eosinophil (2×10^5), 50 pmol/L [^125I]-eotaxin (2000 Ci/mmoL, manufactured by AmershamPharmacia Biotech) and a test compound were mixed in 0.1 mL of a binding buffer (50 mmol/L HEPES, 1 mmol/L CaCl2, 5 mmol/L MgCl2, 0.5% bovine serum albumin (BSA), 0.1% sodium azide, pH 7.6), and the mixture was incubated at 25° C. for 1 hr in a multiscreen plate (manufactured by Millipore Corporation). After the completion of the incubation, the reaction mixture in the multiscreen plate was filtered in vacuo and washed with 0.6 mL of a cold washing buffer (50 mmol/L HEPES, 1 mmol/L CaCl2, 5 mmol/L MgCl2, 0.5 mol/L NaCl, 0.1% sodium azide, pH 7.6), and the radioactivity on the filter was measured. […] The IC50 values (concentration of a test compound necessary for decreasing the binding between [^125 I]-eotaxin and human eosinophil by 50%) of some of the compounds of the present invention were as follows.

CCR3 = target: T1, CCR3 (Homo sapiens, UniProt P51677); experiment: Effect on intracellular calcium concentration in eosinophil on stimulation with CCL11; type: cell-based; settings: human peripheral blood eosinophil, agonist CCL11 0.3 nmol/L, compound 5 min before stimulation, Fura-2 AM; read-out: IC50 of the increase in the intracellular calcium concentration
T1 construct: Eosinophil separated from the peripheral blood of a healthy subject; endogenous in cells; host or cells: eosinophils from peripheral blood of a healthy subject
T1 sequence (P51677 1-355): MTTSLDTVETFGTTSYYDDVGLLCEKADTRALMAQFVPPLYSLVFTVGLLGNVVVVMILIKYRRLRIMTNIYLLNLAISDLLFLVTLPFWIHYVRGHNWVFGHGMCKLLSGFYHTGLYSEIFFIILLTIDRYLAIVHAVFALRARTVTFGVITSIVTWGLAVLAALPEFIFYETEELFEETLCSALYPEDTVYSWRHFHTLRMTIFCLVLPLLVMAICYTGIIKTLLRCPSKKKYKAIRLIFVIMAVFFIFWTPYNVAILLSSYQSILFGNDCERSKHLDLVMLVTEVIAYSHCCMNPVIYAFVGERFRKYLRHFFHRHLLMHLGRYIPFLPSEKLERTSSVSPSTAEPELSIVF
Description: The effect of the compound of the present invention on intracellular calcium in eosinophil in the peripheral blood of a healthy subject on stimulation with CCL11 was elavuated by the following method.
Eosinophil separated from the peripheral blood of a healthy subject was suspended in a buffer for measurement (10 mmol/L HEPES, and 0.5% bovine serum albumin-containing hanks' balanced salt solution), and the suspension was incubated in the presence of 5 μmol/L of Fura-2 AM (manufactured by Dojindo Laboratories) at 37° C. for 45 min. After the completion of incubation, the cells were washed three times with the buffer for measurement to remove Fura-2 AM not-incorporated into the cells.
The cell suspension was adjusted to the final concentration of 1×10^6 cells/mL with the buffer for measurement and preserved in a dark place until measurement. The intracellular calcium was measured using FDSS6000 manufactured by Hamamatsu Photonics K.K. That is, a cell suspension (0.1 mL) loaded with Fura-2 AM was placed in a 96 well plate for measurement, and the plate was set on FDSS6000. The fluorescence intensities due to excitation lights at wavelengths 340 nm and 380 nm were measured. The ratio of the fluorescence intensities corresponding to the excitation lights at these two wavelengths was determined to calculate the intracellular calcium concentration. […]

[1] = Measurement of blood (plasma) concentration; type: in vivo; settings: female rat, LC/MS, administered orally and intravenously (route and dose for Cmax not stated)
Description: The compound of the present invention was administered orally and intravenously to female rat, and the plasma concentration of the compound was measured. That is, the test compound was weighed, dissolved or suspended in a medium, diluted to the objective concentration, and orally and intravenously administered. After the administration, the blood was drawn with time from the cervical vein with a heparin treated syringe. The blood was centrifuged, the plasma was separated, and the plasma was preserved at −20° C. until analysis. The concentration of the compound in plasma was measured using LC/MS. The results are shown in the following [Table 3].

Structure (SMILES) | IC50 (human eosinophil) [nM] | IC50 (CCR3) [nM] | Cmax [1] [ng/mL]
N=C(N)Nc1nc(-c2ccc(CCCCC(=O)NC3CCN(Cc4ccc(Cl)c(Cl)c4)CC3)cc2)cs1 [Example 1, N-[1-(3,4-dichlorobenzyl)piperidin-4-yl]-5-[4-(2-guanidinothiazol-4-yl)phenyl]valeramide] | 6 |  | 
Nc1ccc(-c2csc(SCC(=O)NC3CCN(Cc4ccc(Cl)c(Cl)c4)CC3)n2)cc1 [Example 6, [4-(4-aminophenyl)thiazol-2-ylthio]-N-[1-(3,4-dichlorobenzyl)piperidin-4-yl]acetamide] | 11 |  | 
N=C(N)Nc1nc(-c2ccc(OCCCC(=O)NC3CCN(Cc4ccc(Cl)c(Cl)c4)CC3)cc2)cs1 [Example 9, N-[1-(3,4-dichlorobenzyl)piperidin-4-yl]-4-[4-(2-guanidinothiazol-4-yl)phenyloxy]butylamide ½ fumarate ¼ hydrate] | 4 | 6 | 
Nc1cccc(-c2csc(SCC(=O)NC3CCN(Cc4ccc(Cl)c(Cl)c4)CC3)n2)c1 [Example 35, [4-(3-aminophenyl)thiazol-2-ylthio]-N-[1-(3,4-dichlorobenzyl)piperidin-4-yl]acetamide] |  |  | 3120
